pIC50: −log10 of the molar value. Entries after “also recorded” stand apart in the source; their conditions may differ. Where two headings read alike, the source gives them in different places. Bounds are passed on as bounds.

Data set [1] relates to cigarette smoke-induced pulmonary macrophage and neutrophil influx. Description: Cigarette Smoke Model. In kind it is in vivo, mouse. As to conditions: A/J mice; for anti-inflammatory activity (BALF neutrophils and alveolar macrophages), monotherapy: twice daily for 3 days after final smoke exposure. Here is the method: A/J mice (males, 5 weeks old) were exposed to cigarette smoke (4% cigarette smoke, diluted with compressed air) for 30 min/day for 11 days using a Tobacco Smoke Inhalation Experiment System for small animals (Model SIS-CS; Sibata Scientific Technology, Tokyo, Japan). Test substances were given intra-nasally (35 μL of solution in 50% DMSO/PBS) and therapeutically twice daily for 3 days after the final cigarette smoke exposure. Twelve hr after the last dosing, animals were anesthetized, the trachea cannulated and bronchoalveolar lavage fluid (BALF) was collected. The numbers of alveolar macrophages and neutrophils were determined by FACS analysis (EPICS® ALTRA II, Beckman Coulter, Inc., Fullerton, Calif., USA) using anti-mouse MOMA2 antibody (macrophage) or anti-mouse 7/4 antibody (neutrophil).

Data set [2] addresses recombinant PI3 kinase α (Homo sapiens (Human), UniProt P42336). Nature of the data set: Enzyme Inhibition Assay (HTRF PI3K enzyme assay, TR-FRET). It is filed as biochemical. A digest of the protocol:
(§1)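 TR-FRET readout after 15-18 hr at RT with biotinylated PIP3, GST-tagged GRP1 PH domain and europium/APC fluorophores; product PIP3 displaces the tracer and lowers the signal. Beforehand, compound and PIP2 were reacted for 2 hr at RT with human recombinant PI3Kα, δ or γ.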

Data set [3] deals with recombinant PI3 kinase γ (Homo sapiens (Human), UniProt P48736). The description is as above. It is filed as biochemical. The essentials:
as §1

The target of data set [4] is recombinant PI3 kinase δ (Homo sapiens (Human), UniProt O00329). The description is as above. In kind it is biochemical. A digest of the protocol:
as §1

In data set [5] the test system is H2O2 induced pAkt in D-U937 cells. Nature of the data set: PI3Kδ Cell Based Assay (H2O2 induced pAkt). Particulars: Homo sapiens, dU937. The essentials: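 Read-out is the pAkt/total Akt signal ratio, measured with anti-pAkt and anti-pan-Akt antibodies after H2O2 stimulation. Cells were U937 monocytes given PMA (100 ng/mL) for 48 to 72 hr. IC50 values fitted from compound serial dilutions.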

Data set [6] deals with PMA-differentiated U937 cells. Nature of the data set: MTT Assay (cell viability). It is filed as cell-based, Human. As to conditions: percentage loss of cell viability. A digest of the protocol: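 Differentiated U937 cells treated with compound for 4 hr (5% FCS) or 24 hr (10% FCS), then given MTT for 1 hr; formazan dissolved in DMSO and absorbance read at 550 nm. Viability loss expressed as % versus 0.5% DMSO vehicle.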

Data set [7] concerns LPS induced neutrophilia in mouse lung. Description: LPS-Induced Neutrophilia in the Mouse. It is filed as in vivo. Particulars: intra-tracheal dosing before LPS challenge, mouse. Here is the method:
Non-fasted mice were dosed by the intra-tracheal route with either vehicle, or the test substance at the time points (“pre-dose”) indicated with respect to the start of LPS treatment. At T=0, mice were placed into an exposure chamber and exposed to LPS. Eight hr after LPS challenge, animals were anesthetized, the trachea cannulated and BALF extracted by infusing and withdrawing 1 mL of PBS into the lungs via a tracheal catheter. Total and differential white cell counts in the BALF samples were measured using a Neubaur haemocytometer. Cytospin smears of the BALF samples were prepared by centrifugation at 200 rpm for 5 min at RT and stained using a DiffQuik stain system (Dade Behring). Cells were counted using oil immersion microscopy.

Data set [8] is described as follows: Stereochemical analysis by chiral stationary phase HPLC (atropisomerism). In kind it is physicochemical. Particulars: chiral stationary phase HPLC (16 different conditions for the examples).

Chain of recombinant PI3 kinase γ (P48736 whole entry): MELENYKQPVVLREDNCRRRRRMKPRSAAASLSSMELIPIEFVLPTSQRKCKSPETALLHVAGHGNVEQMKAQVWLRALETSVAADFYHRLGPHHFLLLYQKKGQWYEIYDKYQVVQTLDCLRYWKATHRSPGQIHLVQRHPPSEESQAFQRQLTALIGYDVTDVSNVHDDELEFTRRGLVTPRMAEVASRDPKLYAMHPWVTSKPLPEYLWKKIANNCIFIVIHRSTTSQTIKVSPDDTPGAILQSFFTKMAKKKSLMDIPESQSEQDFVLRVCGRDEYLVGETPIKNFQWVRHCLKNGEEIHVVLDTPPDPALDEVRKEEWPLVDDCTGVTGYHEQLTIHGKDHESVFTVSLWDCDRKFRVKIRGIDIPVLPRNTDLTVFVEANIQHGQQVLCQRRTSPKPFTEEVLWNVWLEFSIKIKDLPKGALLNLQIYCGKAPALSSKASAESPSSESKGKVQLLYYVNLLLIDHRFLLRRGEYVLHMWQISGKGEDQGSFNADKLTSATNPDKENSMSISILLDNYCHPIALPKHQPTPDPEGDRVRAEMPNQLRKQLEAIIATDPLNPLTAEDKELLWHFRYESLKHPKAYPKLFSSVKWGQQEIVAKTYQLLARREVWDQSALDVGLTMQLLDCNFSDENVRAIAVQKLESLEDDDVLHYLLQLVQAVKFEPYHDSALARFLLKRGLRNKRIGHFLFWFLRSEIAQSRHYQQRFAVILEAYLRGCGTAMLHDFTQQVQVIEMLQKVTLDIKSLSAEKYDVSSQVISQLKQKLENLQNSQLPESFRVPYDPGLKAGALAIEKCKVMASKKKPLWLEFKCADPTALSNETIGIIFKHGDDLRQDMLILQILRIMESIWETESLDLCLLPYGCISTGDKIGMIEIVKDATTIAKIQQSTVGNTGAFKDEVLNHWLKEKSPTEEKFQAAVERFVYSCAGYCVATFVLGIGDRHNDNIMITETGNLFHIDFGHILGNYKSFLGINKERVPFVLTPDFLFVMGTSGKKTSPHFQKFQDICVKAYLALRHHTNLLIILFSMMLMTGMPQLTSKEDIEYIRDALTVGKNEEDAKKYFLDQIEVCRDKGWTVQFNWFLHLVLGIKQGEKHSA
Chain of recombinant PI3 kinase δ (O00329 whole entry): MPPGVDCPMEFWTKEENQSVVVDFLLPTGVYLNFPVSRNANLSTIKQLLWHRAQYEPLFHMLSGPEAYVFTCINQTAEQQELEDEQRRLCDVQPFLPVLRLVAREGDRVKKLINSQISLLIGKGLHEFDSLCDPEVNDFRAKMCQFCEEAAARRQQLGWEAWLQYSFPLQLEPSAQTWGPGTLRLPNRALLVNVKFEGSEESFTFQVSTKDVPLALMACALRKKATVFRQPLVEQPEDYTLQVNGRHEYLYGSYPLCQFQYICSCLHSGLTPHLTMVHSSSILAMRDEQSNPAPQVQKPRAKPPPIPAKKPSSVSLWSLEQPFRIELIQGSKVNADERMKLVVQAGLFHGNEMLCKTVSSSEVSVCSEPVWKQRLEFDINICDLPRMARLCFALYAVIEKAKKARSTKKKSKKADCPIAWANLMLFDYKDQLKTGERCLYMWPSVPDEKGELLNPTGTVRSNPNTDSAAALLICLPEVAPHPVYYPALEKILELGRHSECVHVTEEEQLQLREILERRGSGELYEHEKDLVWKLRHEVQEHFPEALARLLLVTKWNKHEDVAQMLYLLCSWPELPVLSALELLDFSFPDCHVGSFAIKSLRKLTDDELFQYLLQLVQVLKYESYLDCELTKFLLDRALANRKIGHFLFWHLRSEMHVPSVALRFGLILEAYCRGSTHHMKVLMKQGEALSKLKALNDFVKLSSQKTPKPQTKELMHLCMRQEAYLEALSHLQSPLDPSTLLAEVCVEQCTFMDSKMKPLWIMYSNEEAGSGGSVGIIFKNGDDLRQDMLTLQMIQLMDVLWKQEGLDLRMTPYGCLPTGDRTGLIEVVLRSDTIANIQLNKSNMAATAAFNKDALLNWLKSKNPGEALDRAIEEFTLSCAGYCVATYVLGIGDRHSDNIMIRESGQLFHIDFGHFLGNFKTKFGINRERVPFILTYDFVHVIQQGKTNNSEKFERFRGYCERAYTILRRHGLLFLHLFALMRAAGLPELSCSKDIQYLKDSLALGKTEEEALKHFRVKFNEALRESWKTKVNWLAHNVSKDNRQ
Chain of recombinant PI3 kinase δ (P27986 whole entry partner): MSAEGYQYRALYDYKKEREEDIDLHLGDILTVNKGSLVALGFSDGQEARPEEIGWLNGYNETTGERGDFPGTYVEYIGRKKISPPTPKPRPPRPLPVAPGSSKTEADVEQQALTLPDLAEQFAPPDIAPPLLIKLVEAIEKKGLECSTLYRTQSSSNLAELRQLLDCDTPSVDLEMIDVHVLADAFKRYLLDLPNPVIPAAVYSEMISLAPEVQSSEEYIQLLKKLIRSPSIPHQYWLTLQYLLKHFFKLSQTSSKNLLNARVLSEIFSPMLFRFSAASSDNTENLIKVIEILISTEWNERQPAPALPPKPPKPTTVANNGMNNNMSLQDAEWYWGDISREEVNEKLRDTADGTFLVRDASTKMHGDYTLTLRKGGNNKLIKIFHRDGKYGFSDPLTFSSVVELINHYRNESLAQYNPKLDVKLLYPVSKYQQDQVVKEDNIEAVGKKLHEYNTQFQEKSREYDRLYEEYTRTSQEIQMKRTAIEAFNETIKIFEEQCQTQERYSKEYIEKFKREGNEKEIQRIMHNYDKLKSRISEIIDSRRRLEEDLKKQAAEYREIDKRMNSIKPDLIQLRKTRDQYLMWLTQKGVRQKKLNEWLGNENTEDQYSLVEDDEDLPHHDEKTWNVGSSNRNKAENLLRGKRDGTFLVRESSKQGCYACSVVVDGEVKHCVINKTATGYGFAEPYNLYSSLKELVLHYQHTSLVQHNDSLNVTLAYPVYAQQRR
Chain of recombinant PI3 kinase α (P42336 whole entry, the tested form may be a part): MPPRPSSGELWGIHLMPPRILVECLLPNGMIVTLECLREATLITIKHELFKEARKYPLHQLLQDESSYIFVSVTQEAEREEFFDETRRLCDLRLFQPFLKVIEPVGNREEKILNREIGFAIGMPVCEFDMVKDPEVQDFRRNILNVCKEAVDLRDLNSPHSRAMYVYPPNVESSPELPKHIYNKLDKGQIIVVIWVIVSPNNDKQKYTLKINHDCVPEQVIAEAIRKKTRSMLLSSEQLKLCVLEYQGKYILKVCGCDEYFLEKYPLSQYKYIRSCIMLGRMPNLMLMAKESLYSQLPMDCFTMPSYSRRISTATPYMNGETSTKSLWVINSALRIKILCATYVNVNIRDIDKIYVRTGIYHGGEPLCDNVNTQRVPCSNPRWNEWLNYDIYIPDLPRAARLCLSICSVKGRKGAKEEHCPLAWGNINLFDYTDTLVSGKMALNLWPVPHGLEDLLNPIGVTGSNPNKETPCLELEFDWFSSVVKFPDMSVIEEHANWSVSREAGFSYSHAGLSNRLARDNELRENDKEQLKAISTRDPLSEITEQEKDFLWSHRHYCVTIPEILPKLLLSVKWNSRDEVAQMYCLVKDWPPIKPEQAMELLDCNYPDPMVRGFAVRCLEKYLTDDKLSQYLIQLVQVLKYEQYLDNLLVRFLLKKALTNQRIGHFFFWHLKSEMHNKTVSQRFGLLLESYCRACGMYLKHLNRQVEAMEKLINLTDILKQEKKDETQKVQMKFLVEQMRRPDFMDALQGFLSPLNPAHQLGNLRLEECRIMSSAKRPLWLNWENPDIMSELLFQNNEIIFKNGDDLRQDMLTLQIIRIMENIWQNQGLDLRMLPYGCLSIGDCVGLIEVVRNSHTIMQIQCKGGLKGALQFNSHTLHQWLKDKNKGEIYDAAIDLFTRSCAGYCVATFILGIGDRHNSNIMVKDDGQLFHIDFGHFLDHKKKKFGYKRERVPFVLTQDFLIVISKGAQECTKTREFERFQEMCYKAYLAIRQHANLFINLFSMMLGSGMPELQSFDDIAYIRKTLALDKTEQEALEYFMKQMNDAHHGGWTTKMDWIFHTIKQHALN
Chain of recombinant PI3 kinase α (P27986 whole entry partner, the tested form may be a part): as the sequence (P27986 whole entry partner) above

Regarding `CCC(=O)O[C@]1(C(=O)SCF)[C@H](C)C[C@H]2[C@@H]3C[C@H](F)C4=CC(=O)C=C[C@]4(C)[C@@]3(F)[C@@H](O)C[C@@]21C` [fluticasone propionate, reference compound], the “anti-inflammatory activity (BALF neutrophils and alveolar macrophages), monotherapy” value in data set [1] is recorded as “lacks effect as monotherapy”.

Consider `C#Cc1cccc2nc(Cn3nc(-c4cccc(O)c4)c4c(N)ncnc43)n(Cc3ccccc3Cl)c(=O)c12` [Example 1, 2-((4-Amino-3-(3-hydroxyphenyl)-1H-pyrazolo[3,4-d]pyrimidin-1-yl)methyl)-3-(2-chlorobenzyl)-5-ethynylquinazolin-4(3H)-one], for which the pIC50 in data set [2] (activity range, read-out: PI3 Kinase Inhibition IC50 values at stated Isozyme α) is 6.00 to 7.30; in data set [3] (activity range, read-out: PI3 Kinase Inhibition IC50 values at stated Isozyme γ) it was 6.00 to 7.30; in data set [4] (activity range, read-out: PI3 Kinase Inhibition IC50 values at stated Isozyme δ), over 7.30; in data set [5] (activity range, D-U937 cells, read-out: Cellular Activity IC50 values (H2O2 induced pAkt D-U937 Cells)) it was over 8.00. Moreover, the IC50 in data set [2] (read-out: PI3 Kinase Inhibition IC50 values at stated Isozyme (nM) α) came to 199 nM; in data set [3] (read-out: PI3 Kinase Inhibition IC50 values at stated Isozyme (nM) γ), 234 nM; in data set [4] (read-out: PI3 Kinase Inhibition IC50 values at stated Isozyme (nM) δ), 7 nM; in data set [5] (read-out: Cellular Activity IC50 values (H2O2 induced pAkt (nM) D-U937 Cells)), 1.1 nM. Moreover, the “Cell Viability MTT Assay in D-U937 cells at 4 hr” value in data set [6] (4 hr in 5% FCS) is on record as “− (− <30%)”. For the same compound, the “Cell Viability MTT Assay in D-U937 cells at 24 hr” value in data set [6] (24 hr in 10% FCS) is given as “− (− <30%)”. For the same compound, the “inhibition of LPS-induced neutrophilia (neutrophil influx into the lung), in words” value in data set [7] is “Inhibition of LPS-induced neutrophilia”. In data set [1] (co-administered with fluticasone propionate at a dose which lacks effect as monotherapy), the “anti-inflammatory activity when co-administered with fluticasone propionate” value is listed as “marked enhancement of anti-inflammatory activity”. For the same compound, the “anti-inflammatory activity (BALF neutrophils and alveolar macrophages), monotherapy” value in data set [1] is listed as “inhibition; also recorded: possesses anti-inflammatory activity”. Besides, the “atropisomerism by chiral stationary phase HPLC” value in data set [8] is reported as “no evidence for atropisomerism was observed”.

For `C[C@@H]1C[C@H]2[C@@H]3CCC4=CC(=O)C=C[C@]4(C)[C@@]3(F)[C@@H](O)C[C@]2(C)[C@@]1(O)C(=O)CO` [dexamethasone, reference compound], the “anti-inflammatory activity (BALF neutrophils and alveolar macrophages)” value in data set [1] (0.3-10 mg/kg, p.o.) was “inactive”.

What is called pIC50 is −log10 of the IC50, conventionally taken in molar units. As usually defined, the IC50 is the midpoint of a concentration-inhibition curve.

Values taken from patent US9321773B2, “Compounds” (Respivert Ltd, priority 2009, dated 2016).
